Data on 18 compounds can be found in PubChem BioAssay AID256 (DTP/NCI, 2004).

The experiment concerns CD2F1 mice, L1210 leukemia ip, survival T/C. Description: NCI In Vivo Anticancer Drug Screen. Data for tumor model L1210 Leukemia (intraperitoneal) in CD2F1 (CDF1) mice. The settings on record: higher = longer survival. The gist of the method:
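Antitumor effect is scored in animals hosting a serially transplanted tumor. Values compare compound-dosed animals against vehicle-only controls as a simple quotient.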

Setting [1] is: endpoint: mean survival time, dose: 100.0 mg/kg/injection, schedule: Q04DX003 (ip), vehicle: saline with Tween-80.
[2] abbreviates: endpoint: mean survival time, dose: 200.0 mg/kg/injection, schedule: Q04DX003 (ip), vehicle: saline with Tween-80.
[3] abbreviates: endpoint: mean survival time, dose: 400.0 mg/kg/injection, schedule: Q04DX003 (ip), vehicle: saline with Tween-80.
[4] abbreviates: endpoint: mean survival time, dose: 20.0 mg/kg/injection, schedule: Q01DX009 (ip), vehicle: saline with Tween-80.
The mark [5] stands for this setting: endpoint: mean survival time, dose: 12.5 mg/kg/injection, schedule: Q01DX009 (ip), vehicle: saline with Tween-80.
[6] abbreviates: endpoint: mean survival time, dose: 25.0 mg/kg/injection, schedule: Q01DX009 (ip), vehicle: saline with Tween-80.
Where [7] appears, read: endpoint: mean survival time, dose: 100.0 mg/kg/injection, schedule: Q01DX001 (ip), vehicle: saline with Tween-80.
The mark [8] stands for this setting: endpoint: mean survival time, dose: 100.0 mg/kg/injection, schedule: Q01DX009 (ip), vehicle: saline with Tween-80.
[9] abbreviates: endpoint: mean survival time, dose: 200.0 mg/kg/injection, schedule: Q01DX001 (ip), vehicle: saline with Tween-80.
The mark [10] stands for this setting: endpoint: median survival time, dose: 6.25 mg/kg/injection, schedule: Q01DX009 (ip), vehicle: saline with Tween-80.
Setting [11] is: endpoint: median survival time, dose: 12.5 mg/kg/injection, schedule: Q01DX009 (ip), vehicle: saline with Tween-80.
The mark [12] stands for this setting: endpoint: median survival time, dose: 25.0 mg/kg/injection, schedule: Q01DX009 (ip), vehicle: saline with Tween-80.
Where [13] appears, read: endpoint: mean survival time, dose: 100.0 mg/kg/injection, schedule: Q01DX001 (ip), vehicle: saline.
[14] abbreviates: endpoint: mean survival time, dose: 200.0 mg/kg/injection, schedule: Q01DX001 (ip), vehicle: saline.
Setting [15] is: endpoint: mean survival time, dose: 400.0 mg/kg/injection, schedule: Q01DX001 (ip), vehicle: saline.
Where [16] appears, read: endpoint: mean survival time, dose: 200.0 mg/kg/injection, schedule: Q01DX009 (ip), vehicle: saline with Tween-80.
[17] abbreviates: endpoint: mean survival time, dose: 400.0 mg/kg/injection, schedule: Q01DX009 (ip), vehicle: saline with Tween-80.

Values joined by “and” are separate entries in the source; they are usually repeats but may differ in a detail not shown here. Equal values may be shown once. Inconclusive results and toxic doses are left out.

Regarding `CC(C)C1C(=O)CCCC1=O`, the T/C reads like this: under setting [1], 102 % of control; under setting [2], 105 % of control; under setting [3], 96 % of control.
As to `C=C1C(=O)OC2/C=C(\C)CC/C=C(/C=O)C(OC(=O)C(C)C)C(O)C12` (configuration not stated), the T/C is, setting by setting: (endpoint: mean survival time, dose: 1.0 mg/kg/injection, schedule: Q01DX009 (ip), vehicle: saline with Tween-80) 113 % of control and 103 % of control; (endpoint: mean survival time, dose: 2.0 mg/kg/injection, schedule: Q01DX009 (ip), vehicle: saline with Tween-80) 103 % of control and 105 % of control and 107 % of control; (endpoint: mean survival time, dose: 4.0 mg/kg/injection, schedule: Q01DX009 (ip), vehicle: saline with Tween-80) 97 % of control and 100 % of control and 107 % of control; (endpoint: mean survival time, dose: 8.0 mg/kg/injection, schedule: Q01DX009 (ip), vehicle: saline with Tween-80) 102 % of control and 109 % of control and 112 % of control; (endpoint: mean survival time, dose: 16.0 mg/kg/injection, schedule: Q01DX009 (ip), vehicle: saline with Tween-80) 92 % of control and 96 % of control.
With `C=C1C(=O)O[C@@H]2[C@H](O)[C@@H](C)[C@@H]3C=CC(=O)[C@@]3(C)[C@H](OC(=O)C=C(C)C)[C@H]12`, the T/C runs as follows: (endpoint: mean survival time, dose: 1.25 mg/kg/injection, schedule: Q01DX009 (ip), vehicle: saline with Tween-80) 100 % of control; (endpoint: mean survival time, dose: 2.5 mg/kg/injection, schedule: Q01DX009 (ip), vehicle: saline with Tween-80) 102 % of control; (endpoint: mean survival time, dose: 5.0 mg/kg/injection, schedule: Q01DX009 (ip), vehicle: saline with Tween-80) 108 % of control; (endpoint: mean survival time, dose: 10.0 mg/kg/injection, schedule: Q01DX009 (ip), vehicle: saline with Tween-80) 106 % of control; under setting [4], 89 % of control.
`COC(=O)c1cc2cc3c(c(O)c2c(=O)o1)OC1(Cc2c(O)c4c(c(O)c2O1)C(=O)C(OC)CC4=O)CC3O` (configuration not stated): the T/C runs as follows: under setting [5], 92 % of control; under setting [6], 94 % of control; under setting [7], 91 % of control; under setting [8], 101 % of control; under setting [9], 96 % of control.
On to `COC(=O)c1cn[nH]c1/N=N/N(C)C`, for which the T/C is 175 % of control (endpoint: mean survival time, dose: 88.0 mg/kg/injection, schedule: Q01DX009 (ip), vehicle: other); 164 % of control (endpoint: mean survival time, dose: 133.0 mg/kg/injection, schedule: Q01DX009 (ip), vehicle: other); 88 % of control (endpoint: mean survival time, dose: 300.0 mg/kg/injection, schedule: Q01DX009 (ip), vehicle: other).
With `O=C(Nc1ccc(OCC2=NCCN2)cc1)c1ccc(C(=O)Nc2ccc(OCC3=NCCN3)cc2)cc1`, the T/C runs as follows: (endpoint: median survival time, dose: 3.12 mg/kg/injection, schedule: Q01DX009 (ip), vehicle: saline with Tween-80) 102 % of control; under setting [10], 96 % of control; under setting [11], 98 % of control; under setting [12], 101 % of control; (endpoint: median survival time, dose: 50.0 mg/kg/injection, schedule: Q01DX009 (ip), vehicle: saline with Tween-80) 98 % of control.
For the compound `Cc1cc(C)c(CC(C)C)c(C)c1`, the T/C is, setting by setting: under setting [13], 98 % of control; under setting [14], 98 % of control; under setting [15], 98 % of control.
In the case of `c1ccc2nc(C3CO3)cnc2c1` (configuration not stated), the T/C is, setting by setting: (endpoint: mean survival time, dose: 50.0 mg/kg/injection, schedule: Q04DX003 (ip), vehicle: saline with Tween-80) 100 % of control; under setting [1], 96 % of control; under setting [2], 97 % of control.
Take `Nc1nnc[se]1`: the T/C (endpoint: mean survival time, dose: 3.12 mg/kg/injection, schedule: Q01DX009 (ip), vehicle: saline with Tween-80) is 102 % of control and 104 % of control; the T/C (endpoint: mean survival time, dose: 6.25 mg/kg/injection, schedule: Q01DX009 (ip), vehicle: saline with Tween-80) was 109 % of control and 110 % of control; the T/C under setting [5] is 116 % of control and 117 % of control and 110 % of control; the T/C under setting [6] is 120 % of control; the T/C (endpoint: mean survival time, dose: 50.0 mg/kg/injection, schedule: Q01DX009 (ip), vehicle: saline with Tween-80) is 120 % of control and 98 % of control; the T/C under setting [8] is 105 % of control. Further, the T/C under setting [10] is 106 % of control, the T/C under setting [11] was 109 % of control and the T/C under setting [12] is 108 % of control.
Turning to `CCOC(=O)C1CC2(CC(C(=O)O)C2)C1` (configuration not stated), the T/C is 97 % of control under setting [13], 93 % of control under setting [14] and 105 % of control under setting [15].
With `O=C(/C=C\c1ccccc1)c1ccc(Cl)cc1`, the T/C is, setting by setting: (endpoint: mean survival time, dose: 100.0 mg/kg/injection, schedule: Q01DX001 (ip), vehicle: other) 90 % of control; (endpoint: mean survival time, dose: 200.0 mg/kg/injection, schedule: Q01DX001 (ip), vehicle: other) 92 % of control; (endpoint: mean survival time, dose: 400.0 mg/kg/injection, schedule: Q01DX001 (ip), vehicle: other) 88 % of control.
Turning to `O=CNC(CSSCC(NC=O)C(=O)O)C(=O)O` (configuration not stated), the T/C was 100 % of control under setting [8], 97 % of control under setting [16] and 94 % of control under setting [17].
Regarding `CC(C)CCNCC(C)(C)OC(=O)c1ccc([N+](=O)[O-])cc1`, the T/C reads like this: (endpoint: mean survival time, dose: 75.0 mg/kg/injection, schedule: Q01DX001 (ip), vehicle: saline) 97 % of control; (endpoint: mean survival time, dose: 150.0 mg/kg/injection, schedule: Q01DX001 (ip), vehicle: saline) 101 % of control; (endpoint: mean survival time, dose: 300.0 mg/kg/injection, schedule: Q01DX001 (ip), vehicle: saline) 102 % of control.
For `NC(=S)N/N=C/c1ccc(C(F)(F)F)cn1`, the T/C by setting is: (endpoint: mean survival time, dose: 12.5 mg/kg/injection, schedule: Q04DX002 (ip), vehicle: saline with Tween-80) 100 % of control and 102 % of control; (endpoint: mean survival time, dose: 13.3 mg/kg/injection, schedule: Q01DX001 (ip), vehicle: saline with Tween-80) 96 % of control; (endpoint: mean survival time, dose: 13.3 mg/kg/injection, schedule: Q01DX009 (ip), vehicle: Klucel (hydroxypropylcellulose) (HPC)) 100 % of control; (endpoint: mean survival time, dose: 13.3 mg/kg/injection, schedule: Q01DX009 (ip), vehicle: saline with Tween-80) 122 % of control; (endpoint: mean survival time, dose: 20.0 mg/kg/injection, schedule: Q01DX001 (ip), vehicle: saline with Tween-80) 100 % of control; (endpoint: mean survival time, dose: 20.0 mg/kg/injection, schedule: Q01DX009 (ip), vehicle: Klucel (hydroxypropylcellulose) (HPC)) 96 % of control. For the same compound, the T/C under setting [4] was 171 % of control; the T/C (endpoint: mean survival time, dose: 25.0 mg/kg/injection, schedule: Q04DX002 (ip), vehicle: saline with Tween-80) was 105 % of control and 107 % of control; the T/C (endpoint: mean survival time, dose: 30.0 mg/kg/injection, schedule: Q01DX001 (ip), vehicle: saline with Tween-80) was 107 % of control; the T/C (endpoint: mean survival time, dose: 30.0 mg/kg/injection, schedule: Q01DX009 (ip), vehicle: Klucel (hydroxypropylcellulose) (HPC)) is 106 % of control; the T/C (endpoint: mean survival time, dose: 45.0 mg/kg/injection, schedule: Q01DX001 (ip), vehicle: saline with Tween-80) is 108 % of control; the T/C (endpoint: mean survival time, dose: 45.0 mg/kg/injection, schedule: Q01DX009 (ip), vehicle: saline with Tween-80) was 102 % of control. For the same compound, the T/C reads like this: (endpoint: mean survival time, dose: 50.0 mg/kg/injection, schedule: Q04DX002 (ip), vehicle: saline with Tween-80) 105 % of control; (endpoint: mean survival time, dose: 67.5 mg/kg/injection, schedule: Q01DX001 (ip), vehicle: saline with Tween-80) 111 % of control.
`CC(=O)OC1CC2CC1C1C=CCC21` (configuration not stated): the T/C is, setting by setting: under setting [7], 97 % of control; under setting [9], 95 % of control; (endpoint: mean survival time, dose: 400.0 mg/kg/injection, schedule: Q01DX001 (ip), vehicle: saline with Tween-80) 100 % of control.
For `O=S(O)c1ccccc1`, the T/C by setting is: under setting [13], 92 % of control; under setting [14], 94 % of control; under setting [15], 110 % of control.
With `CCOC(=O)N1C(C(=O)c2ccc(C)cc2)N(C2CCCCC2)C(c2ccccc2)N1C(=O)OCC` (configuration not stated), the T/C is, setting by setting: under setting [8], 90 % of control; under setting [1], 97 % of control; under setting [16], 93 % of control; under setting [2], 92 % of control; under setting [17], 90 % of control; under setting [3], 93 % of control.
For `CCCCCC(C[N+](C)(C)C)C(=O)/C=C/c1ccc(Cl)cc1` (configuration not stated), the T/C (endpoint: mean survival time, dose: 12.0 mg/kg/injection, schedule: Q01DX009 (ip), vehicle: Klucel (hydroxypropylcellulose) (HPC)) was 96 % of control; the T/C (endpoint: mean survival time, dose: 25.0 mg/kg/injection, schedule: Q01DX009 (ip), vehicle: Klucel (hydroxypropylcellulose) (HPC)) was 96 % of control; the T/C (endpoint: mean survival time, dose: 50.0 mg/kg/injection, schedule: Q01DX009 (ip), vehicle: Klucel (hydroxypropylcellulose) (HPC)) was 96 % of control.
